Data as given in patent US12023333B2, “Phenyl-sulfamoyl.benzoyc acids as ERAP1 modulators” (GREY WOLF THERAPEUTICS LIMITED, priority 2019, dated 2024).

What follows are molecules tested against T1, Purified ERAP1(37-941)-10His (ERAP1) (Homo sapiens, UniProt Q9NZ08) (assay: ERAP1 mediated hydrolysis of an amide substrate measured in a biochemical system (10-mer decapeptide substrate)). Settings: 10-mer substrate, 23° C. for 1 h, excitation 279 nm and emission 355 nm; read-out: IC50 vs Decapeptide WRVYEKC(Dnp)ALK-acid (where Dnp is Dinitrophenyl maleimide) (10-mer).
T1 construct: Purified ERAP1(37-941)-10His (ERAP1); 10His (C)
T1 sequence (Q9NZ08 37-941): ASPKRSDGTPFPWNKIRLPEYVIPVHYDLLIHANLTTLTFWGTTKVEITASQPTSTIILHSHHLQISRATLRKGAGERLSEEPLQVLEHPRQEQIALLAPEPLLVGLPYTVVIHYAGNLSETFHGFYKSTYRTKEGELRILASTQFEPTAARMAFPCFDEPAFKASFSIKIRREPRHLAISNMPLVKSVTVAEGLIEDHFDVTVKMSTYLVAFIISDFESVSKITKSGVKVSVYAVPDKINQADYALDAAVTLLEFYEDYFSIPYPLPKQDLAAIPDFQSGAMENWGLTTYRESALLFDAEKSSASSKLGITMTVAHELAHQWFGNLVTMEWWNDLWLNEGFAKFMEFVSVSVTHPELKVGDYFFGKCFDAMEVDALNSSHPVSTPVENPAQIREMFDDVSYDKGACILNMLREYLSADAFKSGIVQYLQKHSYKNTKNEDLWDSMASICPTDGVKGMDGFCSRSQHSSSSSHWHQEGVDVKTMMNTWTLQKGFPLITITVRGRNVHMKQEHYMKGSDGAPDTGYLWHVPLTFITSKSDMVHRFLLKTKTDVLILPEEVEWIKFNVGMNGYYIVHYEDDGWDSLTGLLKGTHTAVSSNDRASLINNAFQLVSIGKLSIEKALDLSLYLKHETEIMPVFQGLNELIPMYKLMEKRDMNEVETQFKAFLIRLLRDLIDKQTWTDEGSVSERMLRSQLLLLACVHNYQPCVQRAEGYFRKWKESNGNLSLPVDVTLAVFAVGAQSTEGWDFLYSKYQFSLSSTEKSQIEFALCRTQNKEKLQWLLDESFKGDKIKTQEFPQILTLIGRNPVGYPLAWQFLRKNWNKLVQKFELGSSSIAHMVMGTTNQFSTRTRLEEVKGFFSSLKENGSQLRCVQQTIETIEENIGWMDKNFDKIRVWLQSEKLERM
In short: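 ERAP1(37-941)-10His preincubated with compound in 25 mM Bis-tris propane, 0.05% HPMC, pH 7.75, then reacted 1 h at 23 °C with 10-mer WRVYEKC(Dnp)ALK (100 μM solution added in equal volume). Fluorescence read at ex 279/em 355 nm; IC50 from 4-parameter fit.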

**Q.** `COc1ccc(C(=O)O)cc1S(=O)(=O)Nc1cc(-c2nnn[nH]2)ccc1-c1cccc(F)c1` [Example 64, 3-(N-(3′-fluoro-4-(tetrazol-5-yl)-[1,1′-biphenyl]-2-yl)sulfamoyl)-4-methoxybenzoic acid] was tested. Which IC50 did it give?
**A.** < 500 nM

**Q.** With `COc1ccc(C(=O)O)cc1S(=O)(=O)Nc1cc(S(C)(=O)=O)ccc1-c1ccc(Cl)s1` [Example 88, 3-(N-(2-(5-chlorothiophen-2-yl)-5-(methylsulfonyl)phenyl)sulfamoyl)-4-methoxybenzoic acid] as the molecule, how does the IC50 read?
**A.** < 500 nM

**Q.** `COc1ccc(C(=O)O)cc1S(=O)(=O)Nc1cc(C(F)(F)F)ccc1-c1ccccc1Cl` [Example 10, 3-(N-(2′-chloro-4-(trifluoromethyl)-[1,1′-biphenyl]-2-yl)sulfamoyl)-4-methoxybenzoic acid] was tested. Which IC50 did it give?
**A.** < 5000 nM

**Q.** Which IC50 does the source give for `N#Cc1cc(NS(=O)(=O)c2cc(C(=O)O)ccc2C2CC2)c(-c2cscn2)cc1F` [Example 196, 3-(N-(5-cyano-4-fluoro-2-(thiazol-4-yl)phenyl)sulfamoyl)-4-cyclopropylbenzoic acid] here?
**A.** < 500 nM

**Q.** How did the IC50 turn out when `CCc1ccc(C(=O)O)cc1S(=O)(=O)Nc1cc(C(N)=O)ccc1-c1ccccn1` [Example 104, 3-(N-(5-carbamoyl-2-(pyridin-2-yl)phenyl)sulfamoyl)-4-ethylbenzoic acid] was run?
**A.** < 500 nM
